Source: PubChem BioAssay AID254 (DTP/NCI, 2004)
Values joined by “and” are separate entries in the source; they are usually repeats but may differ in a detail not shown here. Equal values may be shown once. Inconclusive results and toxic doses are left out.

Test system: L1210 leukemia iv in BDF1 mice, survival T/C
Experiment: NCI In Vivo Anticancer Drug Screen. Data for tumor model L1210 Leukemia (intravenous) in B6D2F1 (BDF1) mice
Details: higher = longer survival
Method: The antitumor activity of compounds was measured in mice bearing transplantable tumors. Survival or tumor size were measured and the results are expressed as the measurement made in the treated group (T) divided by the measurement made in the vehicle treated control group (C). The tumor model used in this assay is L1210 Leukemia (intravenous) in B6D2F1 (BDF1) mice

## O=NN(CCF)C(=O)NC1CSCSC1
endpoint: mean survival time, dose: 3.7 mg/kg/injection, schedule: Q01DX001 (ip), vehicle: other
  T/C: 124 % of control
endpoint: mean survival time, dose: 7.0 mg/kg/injection, schedule: Q01DX001 (ip), vehicle: other
  T/C: 186 % of control and 204 % of control
endpoint: mean survival time, dose: 15.0 mg/kg/injection, schedule: Q01DX001 (ip), vehicle: other
  T/C: 351 % of control and 417 % of control
endpoint: mean survival time, dose: 31.0 mg/kg/injection, schedule: Q01DX001 (ip), vehicle: other
  T/C: 582 % of control and 744 % of control
endpoint: mean survival time, dose: 62.0 mg/kg/injection, schedule: Q01DX001 (ip), vehicle: other
  T/C: 433 % of control and 846 % of control

## O=c1[nH]c(=O)n(C2CC(O)C(CO)O2)cc1F (stereo not given)
endpoint: mean survival time, dose: 400.0 mg/kg/injection, schedule: Q01DX001 (ip), vehicle: saline
  T/C: 122 % of control

## NC(=O)c1csc(C2OC(CO)C(O)C2O)n1 (stereo not given)
endpoint: median survival time, dose: 330.0 mg/kg/injection, schedule: Q01DX009 (ip), vehicle: water
  T/C: 241 % of control
endpoint: median survival time, dose: 500.0 mg/kg/injection, schedule: Q01DX009 (ip), vehicle: water
  T/C: 265 % of control
endpoint: median survival time, dose: 750.0 mg/kg/injection, schedule: Q01DX009 (ip), vehicle: water
  T/C: 268 % of control

## O=P1(N(CCCl)CCCl)NCCCO1 (stereo not given)
endpoint: mean survival time, dose: 28.0 mg/kg/injection, schedule: Q01DX001 (ip), vehicle: saline
  T/C: 106 % of control and 109 % of control
endpoint: mean survival time, dose: 60.0 mg/kg/injection, schedule: Q01DX001 (ip), vehicle: saline
  T/C: 155 % of control and 165 % of control
endpoint: mean survival time, dose: 64.0 mg/kg/injection, schedule: Q01DX001 (ip), vehicle: saline
  T/C: 169 % of control
endpoint: mean survival time, dose: 75.0 mg/kg/injection, schedule: Q01DX001 (ip), vehicle: saline
  T/C: 154 % of control and 164 % of control and 171 % of control
endpoint: mean survival time, dose: 80.0 mg/kg/injection, schedule: Q01DX001 (ip), vehicle: saline
  T/C: 158 % of control and 165 % of control
endpoint: mean survival time, dose: 80.0 mg/kg/injection, schedule: Q04DX004 (ip), vehicle: saline
  T/C: 206 % of control
endpoint: mean survival time, dose: 83.0 mg/kg/injection, schedule: Q01DX001 (ip), vehicle: saline
  T/C: 170 % of control
endpoint: mean survival time, dose: 118.0 mg/kg/injection, schedule: Q01DX001 (ip), vehicle: saline
  T/C: 162 % of control and 202 % of control
endpoint: mean survival time, dose: 120.0 mg/kg/injection, schedule: Q04DX004 (ip), vehicle: saline
  T/C: 285 % of control
endpoint: mean survival time, dose: 225.0 mg/kg/injection, schedule: Q01DX001 (ip), vehicle: saline
  T/C: 390 % of control and 290 % of control and 304 % of control
endpoint: mean survival time, dose: 234.0 mg/kg/injection, schedule: Q01DX001 (ip), vehicle: saline
  T/C: 522 % of control and 302 % of control
endpoint: mean survival time, dose: 468.0 mg/kg/injection, schedule: Q01DX001 (ip), vehicle: saline
  T/C: 500 % of control

## O=NN(CCCl)C(=O)NC1CSCSC1
endpoint: mean survival time, dose: 2.0 mg/kg/injection, schedule: Q01DX001 (ip), vehicle: other
  T/C: 106 % of control and 102 % of control
endpoint: mean survival time, dose: 4.0 mg/kg/injection, schedule: Q01DX001 (ip), vehicle: other
  T/C: 109 % of control
endpoint: mean survival time, dose: 4.5 mg/kg/injection, schedule: Q04DX004 (ip), vehicle: saline with Tween-80
  T/C: 293 % of control
endpoint: mean survival time, dose: 7.0 mg/kg/injection, schedule: Q04DX004 (ip), vehicle: saline with Tween-80
  T/C: 443 % of control
endpoint: mean survival time, dose: 8.0 mg/kg/injection, schedule: Q01DX001 (ip), vehicle: other
  T/C: 156 % of control and 161 % of control
endpoint: mean survival time, dose: 11.0 mg/kg/injection, schedule: Q04DX004 (ip), vehicle: saline with Tween-80
  T/C: 735 % of control
endpoint: mean survival time, dose: 16.5 mg/kg/injection, schedule: Q01DX001 (ip), vehicle: other
  T/C: 393 % of control and 311 % of control
endpoint: mean survival time, dose: 16.5 mg/kg/injection, schedule: Q04DX004 (ip), vehicle: saline with Tween-80
  T/C: 1060 % of control
endpoint: mean survival time, dose: 33.0 mg/kg/injection, schedule: Q01DX001 (ip), vehicle: other
  T/C: 490 % of control and 588 % of control
